From patent US8518959B2, “Quinoxaline derivatives as antitumor agents” (Prolexys Pharmaceuticals, Inc., priority 2005, dated 2013)

How the values were obtained:
[1] = test system: BJ-TERT/LT/ST/RAS^V12 tumorigenic cells; assay: Calcein AM viability assay, dilution series; format: cell-based, human; conditions: ST- and RAS^V12-dependent
Source text: (§1) Described here is work carried out to identify compounds with increased potency or activity in the presence of hTERT, LT, ST, E6, E7 or RAS^V12. Although the work described herein made use of hTERT, LT, ST, E6, E7 and RAS^V12 as transforming genes, future studies can make use of a wide variety of cancer-associated alleles using this methodology in order to define the signaling networks that involve many oncogenes and tumor suppressors. Engineered cell lines with these genetic elements were used to screen 23,550 compounds, including 20,000 compounds from a combinatorial library, 1,990 compounds from the National Cancer Institute diversity collection, and 1,540 biologically active known compounds that were selected and purchased by Applicant and formatted into a screenable collection. […] Cell viability was measured using the dye calcein acetoxymethyl ester (calcein AM) (Wang et al., 1993, Hum. Immunol. 37, 264-270), which is a non-fluorescent compound that freely diffuses into cells. […]
(§2) Calcein acetoxylmethyl ester (AM) is a cell membrane-permeable, non-fluorescent compound that is cleaved by intracellular esterases to form the anionic, cell-impermeable, fluorescent compound calcein. […] Total fluorescence intensity in each well was recorded on a Packard Fusion platereader, and converted to a percent inhibition of signal by subtracting the instrument background and dividing by the average signal obtained when cells were not treated with any compound. […]
(§3) Mean RFU (relative fluorescence units) for untreated cells was calculated by averaging columns 1, 2, and 23 (wells with cells but lacking compounds). The calcein background was calculated by averaging column 24 (wells with calcein, but lacking cells). Percentage inhibition of each well was calculated as [1−(RFU−calcein control)/(untreated cell−calcein control)*100]. […]

HT-1080 xenografts = assay: HT-1080 tumor treatment study; format: in vivo, mouse; conditions: nude mice, 50 or 100 mg/Kg QD×5 days IP
Protocol: • Nude Balb/c (Nu/Nu strain, Charles River Laboratories), female, 5-6 week old (˜20 g average body weight). Formulation of Test Articles:
Both compounds were formulated in an identical manner. For the 100 mg/kg dose level, each compound was delivered at a concentration of 10.0 mg/ml, in an injection volume of 0.2 ml. For the 50 mg/kg dose level, each compound was delivered at a concentration of 5.0 mg/ml, in an injection volume of 0.2 ml. For both dose levels, the vehicle contained 0.025% Tween-80, 0.01% benzyl alcohol, 35 mM acetic acid (HOAc), 100 mM potassium phosphate buffer, and 32 mM sucrose, pH 6.5.
• A: PRLX compound 6@100 mg/Kg, QD×5 days, IP, n=8 • B: PRLX compound 6@50 mg/Kg, QD×5 days, IP, n=8 • C: PRLX compound 5@100 mg/Kg, QD×5 days, IP, n=8 • D: PRLX compound 5@50 mg/Kg, QD×5 days, IP, n=8 • E: Vehicle Control, QD×5 days, IP, n=8 • F: Untreated Control, n=8 Treatment Schedule: […]
Starting on Day 1, all animals were weighed, and tumor dimensions (length (L) and width (W)) were measured, every other day. […]
The resulting tumor volume values were averaged for each study group for each time point, and were then plotted against time. Variance was expressed as standard error of the mean (±SEM).

PANC-1 xenografts = assay: PANC-1 tumor treatment study; format: in vivo, mouse; conditions: nude mice, once a day for five consecutive days
Protocol: The experimental plan for the PANC-1 study was essentially identical to that of the HT-1080 study outlined above in Example 10 with the following exceptions: approximately 3040 mg fragment of passaged PANC-1 tumor tissue was implanted subcutaneously in the right flank of an immunodeficient nude mouse. Tumor growth was monitored daily and when the tumors reached approximately 100 mm^3, animals harboring similarly sized tumors were group matched and compound dosing was initiated. Administration of compound 5 occurred once a day for five consecutive days at the doses listed below. In the PANC-1 xenografts, gemcitabine, administered at the maximum tolerated dose for the model, was used as a control. The gemcitabine regimen was 180 mg/kg […] on every third day over a period of 9 days.

BJ primary cells = assay: Calcein AM viability assay, dilution series; format: cell-based, human
Source text: as §1, §2, §3

[2] = test system: BJ-TERT/LT/ST/RAS^V12 cells; assay: Nuclear morphology assay; format: cell-based, human; conditions: fluorescence microscopy, 18 hours
Source text: Applicants sought to characterize the type of cell death induced by CPT and erastin in tumorigenic BJ-TERT/LT/ST/RAS^V12 cells. […] To determine whether erastin or CPT induces apoptosis in their system, Applicants monitored the nuclear morphology of CPT- and erastin-treated tumorigenic cells using fluorescence microscopy. […] Since nuclear morphological change is required of apoptotic cells, Applicants conclude that cell death induced by erastin is non-apoptotic. […] Additionally, nuclei remained intact in erastin-treated tumor cells (FIG. 9).
200,000 tumorigenic BJ-TERT/LT/ST/RAS^V12 cells were seeded in 2 mL on glass coverslips in each well of a six-well dish, treated with nothing (NT), 9 μM erastin or 1.1 μM camptothecin (CPT) in growth medium for 18 hours while incubating at 37° C. with 5% CO2. Nuclei were stained with 25 μg/mL Hoechst 33342 (Molecular Probes) and viewed using an oil immersion 100× objective on a fluorescence microscope.

SMILES	Antitumor effect in HT-1080 xenografts (HT-1080 xenografts)	Antitumor effect in PANC-1 xenografts (PANC-1 xenografts)	also measured
CCOc1ccccc1-n1c(C(C)N2CCN(C(=O)COc3ccc(Cl)cc3)CC2)nc2ccccc2c1=O (centres unmarked) [Erastin]			Time to irreversible cell death [1]: 12 to 24 h
CCOc1ccccc1-n1c(C(C)N2CCNCC2)nc2ccccc2c1=O (centres unmarked) [Compound 6]	induction of tumor growth inhibition	induction of tumor growth inhibition	
C=C1[C@@H](O)[C@@H]2O[C@]3(CC[C@H](/C=C/[C@@H](C)[C@@H]4CC(C)=C[C@@]5(O[C@H](C[C@@](C)(O)C(=O)O)CC[C@H]5O)O4)O3)CC[C@H]2O[C@@H]1[C@@H](O)C[C@H](C)[C@H]1O[C@@]2(CCCCO2)CC[C@H]1C [okadaic acid]			Sensitization of BJ primary cells to camptothecin (BJ primary cells; okadaic acid 3.4 nM with camptothecin): renders BJ cells sensitive to camptothecin; Effect on calcein AM viability staining of BJ cells (BJ primary cells; okadaic acid alone at 3.4 nM): no effect on its own
CCOc1ccccc1-n1c(CN2CCNCC2)nc2ccccc2c1=O [Compound 5, 3-(2-ethoxyphenyl)-2-(piperazin-1-ylmethyl)quinazolin-4(3H)-one]	induction of robust tumor regression	induction of tumor regression	
CC[C@@]1(O)C(=O)OCc2c1cc1n(c2=O)Cc2cc3ccccc3nc2-1 [Camptothecin]			Type of cell death / nuclear morphology [2]: karyorhexis and margination of chromatin were clearly visible
